Source: ChEMBL document CHEMBL1201862, “PubChem BioAssay data set” (2004)
Active and inactive are the calls of the source.

What was measured:
[1] = A cytotoxicity screen of small molecule inhibitors of the PhoP region in Salmonella typhi identified in the primary screen. [Related pubchem assays: 1850, 1864, 1985 ]; type: functional
[2] = molecular target: T1, Probable nicotinate-nucleotide adenylyltransferase (Staphylococcus aureus (strain N315), UniProt P65502); type: functional, Staphylococcus aureus subsp. aureus N315; conditions: read-out: IC50_Mean;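 for IC50 Mean: confirmatory dose-response retesting of NadD inhibitor hits first found in an ultra-high-throughput screen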
T1 sequence (P65502 whole entry): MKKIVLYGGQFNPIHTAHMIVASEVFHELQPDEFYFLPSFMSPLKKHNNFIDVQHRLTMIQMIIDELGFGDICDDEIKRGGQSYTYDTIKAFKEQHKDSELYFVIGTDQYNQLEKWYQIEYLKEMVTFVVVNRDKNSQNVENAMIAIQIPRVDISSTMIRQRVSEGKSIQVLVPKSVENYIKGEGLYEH

[3] = molecular target: T1, Probable nicotinate-nucleotide adenylyltransferase; type: functional, Staphylococcus aureus subsp. aureus N315
Beta-galactosidase = Beta-galactosidase (Escherichia coli, UniProt Q8VNN2); assay: detection-enzyme interference by beta-gal modulators – biochemical, E. coli enzyme, set 3, artefact control for CCR6 antagonist project, dose response (AID 504712); type: functional
Sequence of Beta-galactosidase (Q8VNN2 whole entry): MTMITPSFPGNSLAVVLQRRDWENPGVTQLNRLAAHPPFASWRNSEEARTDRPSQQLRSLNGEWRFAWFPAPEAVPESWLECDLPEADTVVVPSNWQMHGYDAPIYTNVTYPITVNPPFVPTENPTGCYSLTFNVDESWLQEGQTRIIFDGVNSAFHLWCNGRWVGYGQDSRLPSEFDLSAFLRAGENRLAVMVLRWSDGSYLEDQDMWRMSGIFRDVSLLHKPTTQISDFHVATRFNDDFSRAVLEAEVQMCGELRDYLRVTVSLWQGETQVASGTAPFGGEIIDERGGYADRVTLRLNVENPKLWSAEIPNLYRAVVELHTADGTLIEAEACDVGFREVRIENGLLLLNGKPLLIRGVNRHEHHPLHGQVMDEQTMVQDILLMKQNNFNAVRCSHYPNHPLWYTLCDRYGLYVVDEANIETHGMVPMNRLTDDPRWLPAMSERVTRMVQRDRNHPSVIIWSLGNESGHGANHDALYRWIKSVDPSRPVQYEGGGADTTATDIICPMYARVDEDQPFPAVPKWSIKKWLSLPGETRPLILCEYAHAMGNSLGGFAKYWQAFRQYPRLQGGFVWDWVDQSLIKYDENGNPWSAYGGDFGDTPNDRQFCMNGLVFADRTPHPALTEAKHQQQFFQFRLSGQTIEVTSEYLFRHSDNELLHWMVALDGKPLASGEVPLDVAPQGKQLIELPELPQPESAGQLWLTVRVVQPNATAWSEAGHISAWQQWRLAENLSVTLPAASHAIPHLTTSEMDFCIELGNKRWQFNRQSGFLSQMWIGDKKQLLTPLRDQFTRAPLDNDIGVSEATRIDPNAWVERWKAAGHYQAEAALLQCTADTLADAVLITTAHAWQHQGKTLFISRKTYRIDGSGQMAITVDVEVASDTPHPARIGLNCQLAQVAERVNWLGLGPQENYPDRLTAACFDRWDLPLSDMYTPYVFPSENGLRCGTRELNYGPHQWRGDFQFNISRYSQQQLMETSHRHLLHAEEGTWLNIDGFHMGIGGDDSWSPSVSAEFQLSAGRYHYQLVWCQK

Kallikrein-7 = Kallikrein-7 (Homo sapiens, UniProt P49862); assay: Fluorescence Intensity-based biochemical primary high throughput dose response assay to identify activators of kallikrein-7 (K7) zymogen.
Sequence of Kallikrein-7 (P49862 whole entry): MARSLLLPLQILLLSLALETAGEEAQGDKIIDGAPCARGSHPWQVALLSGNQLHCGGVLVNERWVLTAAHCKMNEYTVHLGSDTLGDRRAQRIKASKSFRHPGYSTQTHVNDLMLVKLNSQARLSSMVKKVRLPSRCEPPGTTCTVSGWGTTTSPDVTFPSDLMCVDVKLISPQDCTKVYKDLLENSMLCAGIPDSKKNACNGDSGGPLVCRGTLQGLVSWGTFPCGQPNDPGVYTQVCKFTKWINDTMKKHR

[4] = growth inhibition of PfATP4-mutant resistant parasites – NITD609-resistant line, SYBR Green, dry powder, dose response (AID 1159571); type: functional, cell-based;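 note: parasites synchronized at ring stage by sorbitol before testing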
[5] = intracellular Trypanosoma cruzi inhibitors in host cells – cell-based, plate reader, cherry-pick samples, set 3, dose response (AID 651818); type: functional;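 note: compounds incubated with infected cells for about four days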
[6] = growth inhibition of yeast DHODH-expressing 3D7 parasites – SYBR Green, dry powder samples, dose response (AID 1159570); type: functional, cell-based;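 note: parasite growth measured after 72 hours of compound exposure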
[7] = toxicity to human HepG2 hepatoma cells – cell-based, plate reader, dry powder samples, cytotoxicity control, dose response (AID 1159569); type: functional;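 note: inhibitor potency with signal falling toward the positive control level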
[8] = Dd2 malaria parasite growth inhibition potency – SYBR Green, dry powder samples, dose response (AID 1159566); type: functional, cell-based;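 note: potency for growth inhibition with lower SYBR green DNA signal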
[9] = P. falciparum Dd2 growth inhibitors, dose response, SYBR Green, cherry-picked samples (AID 1159567); type: functional, cell-based
Fatty acid synthase [10] = molecular target: T2, Fatty acid synthase (Homo sapiens, UniProt P49327); assay: inhibition of human FAS-TE enzyme activity – biochemical, endpoint fluorescence intensity, uHTS hits, dose response (AID 624327); type: functional;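 note: fluorescence from hydrolysis of an O-methyl fluorescein acyl ester substrate by the enzyme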
T2 sequence (P49327 whole entry): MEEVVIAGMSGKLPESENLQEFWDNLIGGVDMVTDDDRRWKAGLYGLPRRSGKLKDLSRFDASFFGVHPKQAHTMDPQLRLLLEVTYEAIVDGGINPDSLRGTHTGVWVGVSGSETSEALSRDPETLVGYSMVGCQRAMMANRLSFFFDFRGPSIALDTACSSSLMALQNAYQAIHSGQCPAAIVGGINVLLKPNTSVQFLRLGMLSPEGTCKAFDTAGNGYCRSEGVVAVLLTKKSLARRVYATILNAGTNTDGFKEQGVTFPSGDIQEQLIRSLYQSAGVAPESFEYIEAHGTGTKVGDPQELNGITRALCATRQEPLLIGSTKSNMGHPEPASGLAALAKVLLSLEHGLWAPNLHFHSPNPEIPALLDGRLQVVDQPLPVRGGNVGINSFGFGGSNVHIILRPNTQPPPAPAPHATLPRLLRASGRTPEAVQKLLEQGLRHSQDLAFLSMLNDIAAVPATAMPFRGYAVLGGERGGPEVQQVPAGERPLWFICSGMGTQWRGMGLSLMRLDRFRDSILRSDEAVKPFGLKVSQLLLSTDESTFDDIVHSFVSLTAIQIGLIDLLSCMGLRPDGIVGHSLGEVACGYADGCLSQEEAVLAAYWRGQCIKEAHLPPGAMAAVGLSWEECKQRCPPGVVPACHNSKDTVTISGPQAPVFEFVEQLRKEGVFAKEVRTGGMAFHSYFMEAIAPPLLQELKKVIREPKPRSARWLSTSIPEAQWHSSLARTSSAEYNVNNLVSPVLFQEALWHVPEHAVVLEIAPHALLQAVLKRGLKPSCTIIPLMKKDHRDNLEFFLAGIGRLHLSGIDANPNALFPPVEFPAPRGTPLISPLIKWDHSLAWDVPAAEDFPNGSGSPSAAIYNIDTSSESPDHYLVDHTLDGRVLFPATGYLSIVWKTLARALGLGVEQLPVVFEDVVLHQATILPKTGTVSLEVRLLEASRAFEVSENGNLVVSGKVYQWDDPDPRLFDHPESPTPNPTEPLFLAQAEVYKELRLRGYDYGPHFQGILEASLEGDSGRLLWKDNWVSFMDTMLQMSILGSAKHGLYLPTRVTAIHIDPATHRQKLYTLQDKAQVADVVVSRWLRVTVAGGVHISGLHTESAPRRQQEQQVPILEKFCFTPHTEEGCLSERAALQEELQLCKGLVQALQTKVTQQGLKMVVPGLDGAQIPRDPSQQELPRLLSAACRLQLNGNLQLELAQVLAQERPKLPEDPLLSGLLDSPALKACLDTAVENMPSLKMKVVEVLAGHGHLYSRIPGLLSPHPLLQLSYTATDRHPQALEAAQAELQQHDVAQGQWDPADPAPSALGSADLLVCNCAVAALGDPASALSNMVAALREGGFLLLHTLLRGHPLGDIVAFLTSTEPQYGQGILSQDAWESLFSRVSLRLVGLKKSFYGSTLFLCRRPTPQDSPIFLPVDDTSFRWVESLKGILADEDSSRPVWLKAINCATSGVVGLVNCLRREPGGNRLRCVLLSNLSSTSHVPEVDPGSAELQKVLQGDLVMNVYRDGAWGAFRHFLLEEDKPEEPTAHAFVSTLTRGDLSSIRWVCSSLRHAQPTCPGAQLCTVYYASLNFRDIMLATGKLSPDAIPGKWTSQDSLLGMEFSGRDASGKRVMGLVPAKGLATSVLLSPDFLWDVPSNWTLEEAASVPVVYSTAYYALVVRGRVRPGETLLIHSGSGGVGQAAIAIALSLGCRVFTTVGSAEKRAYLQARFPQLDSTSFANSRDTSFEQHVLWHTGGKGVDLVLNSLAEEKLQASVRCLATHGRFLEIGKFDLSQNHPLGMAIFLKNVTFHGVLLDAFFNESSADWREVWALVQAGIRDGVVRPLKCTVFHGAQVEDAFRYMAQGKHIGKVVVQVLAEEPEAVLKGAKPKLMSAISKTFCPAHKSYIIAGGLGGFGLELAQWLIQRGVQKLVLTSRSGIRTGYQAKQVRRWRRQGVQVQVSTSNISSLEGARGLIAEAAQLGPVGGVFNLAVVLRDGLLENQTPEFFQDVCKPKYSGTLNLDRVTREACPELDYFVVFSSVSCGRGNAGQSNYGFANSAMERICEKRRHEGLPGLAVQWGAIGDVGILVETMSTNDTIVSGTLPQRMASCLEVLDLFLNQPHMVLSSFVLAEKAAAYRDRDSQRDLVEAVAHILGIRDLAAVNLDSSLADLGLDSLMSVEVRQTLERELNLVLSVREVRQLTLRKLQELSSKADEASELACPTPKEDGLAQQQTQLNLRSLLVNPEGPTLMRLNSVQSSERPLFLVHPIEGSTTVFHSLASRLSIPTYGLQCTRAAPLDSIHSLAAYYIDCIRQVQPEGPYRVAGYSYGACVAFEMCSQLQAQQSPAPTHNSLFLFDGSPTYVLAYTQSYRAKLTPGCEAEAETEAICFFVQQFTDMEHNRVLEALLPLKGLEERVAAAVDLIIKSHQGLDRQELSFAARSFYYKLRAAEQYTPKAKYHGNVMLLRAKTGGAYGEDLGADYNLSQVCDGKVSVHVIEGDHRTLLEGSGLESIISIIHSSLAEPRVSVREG

Aminopeptidase N = molecular target: T3, Aminopeptidase N (Plasmodium falciparum FcB1/Columbia, UniProt O96935); assay: malaria alanyl aminopeptidase activity blockers – biochemical, fluorogenic H-Leu-NHMec substrate, 1536-well (AID 1445); design: species or system Plasmodium falciparum 3D7, 3D7
T3 sequence (O96935 whole entry): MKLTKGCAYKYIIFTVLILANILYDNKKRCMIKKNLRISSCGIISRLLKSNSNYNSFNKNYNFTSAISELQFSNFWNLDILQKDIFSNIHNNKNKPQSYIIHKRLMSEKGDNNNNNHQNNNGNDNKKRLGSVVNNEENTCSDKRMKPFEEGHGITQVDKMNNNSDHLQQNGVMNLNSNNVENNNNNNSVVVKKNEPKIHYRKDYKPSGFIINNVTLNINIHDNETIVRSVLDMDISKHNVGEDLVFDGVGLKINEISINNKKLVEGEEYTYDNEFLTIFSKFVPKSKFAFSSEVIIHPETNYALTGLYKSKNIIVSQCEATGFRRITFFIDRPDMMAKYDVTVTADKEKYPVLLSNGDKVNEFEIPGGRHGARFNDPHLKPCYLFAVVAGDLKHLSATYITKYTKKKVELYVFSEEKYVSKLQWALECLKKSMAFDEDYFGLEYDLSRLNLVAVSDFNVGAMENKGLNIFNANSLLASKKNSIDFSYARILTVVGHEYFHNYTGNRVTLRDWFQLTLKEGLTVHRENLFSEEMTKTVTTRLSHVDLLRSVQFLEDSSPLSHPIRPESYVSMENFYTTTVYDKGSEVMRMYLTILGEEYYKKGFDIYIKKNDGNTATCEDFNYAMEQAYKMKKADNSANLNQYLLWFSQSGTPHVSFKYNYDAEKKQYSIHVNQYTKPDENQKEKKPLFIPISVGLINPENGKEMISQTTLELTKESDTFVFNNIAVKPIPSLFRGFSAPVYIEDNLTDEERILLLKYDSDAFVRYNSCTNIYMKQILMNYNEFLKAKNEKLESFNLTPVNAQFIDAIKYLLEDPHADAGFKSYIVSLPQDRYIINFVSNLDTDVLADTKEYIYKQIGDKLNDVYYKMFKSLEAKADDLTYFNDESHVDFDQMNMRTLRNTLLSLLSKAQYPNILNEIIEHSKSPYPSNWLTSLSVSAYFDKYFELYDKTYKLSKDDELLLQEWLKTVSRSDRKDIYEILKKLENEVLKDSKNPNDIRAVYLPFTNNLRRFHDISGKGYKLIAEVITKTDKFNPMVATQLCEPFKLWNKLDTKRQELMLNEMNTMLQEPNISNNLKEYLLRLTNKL

[11] = molecular target: T4, Carboxy-terminal domain RNA polymerase II polypeptide A small phosphatase 1 (Homo sapiens, UniProt Q9GZU7); assay: CTDSP1 inhibitors, concentration-response, biochemical, absorbance readout, ultra-high-throughput screen actives (AID 540297); type: functional
T4 sequence (Q9GZU7 whole entry): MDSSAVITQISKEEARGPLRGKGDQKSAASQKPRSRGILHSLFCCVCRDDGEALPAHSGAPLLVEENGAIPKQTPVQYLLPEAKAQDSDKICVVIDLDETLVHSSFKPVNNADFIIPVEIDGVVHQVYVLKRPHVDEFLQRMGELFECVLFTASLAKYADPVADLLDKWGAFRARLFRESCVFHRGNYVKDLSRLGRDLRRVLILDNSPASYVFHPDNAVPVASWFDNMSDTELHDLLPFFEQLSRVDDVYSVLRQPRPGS

Fatty acid synthase [12] = molecular target: T2, Fatty acid synthase; assay: inhibition of human FAS-TE enzyme activity – biochemical, kinetic fluorescence intensity, dose response (AID 624326); type: functional;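 note: rate of fluorescence rise from hydrolysis of a fluorogenic O-methyl fluorescein ester substrate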
[13] = molecular target: T5, DNA repair and recombination protein RAD54-like (Homo sapiens, UniProt Q92698); assay: RAD54 Holliday junction migration blockers – biochemical, fluorescence, cherry-picked samples, dose series, confirmation (AID 651657); type: functional
T5 sequence (Q92698 whole entry): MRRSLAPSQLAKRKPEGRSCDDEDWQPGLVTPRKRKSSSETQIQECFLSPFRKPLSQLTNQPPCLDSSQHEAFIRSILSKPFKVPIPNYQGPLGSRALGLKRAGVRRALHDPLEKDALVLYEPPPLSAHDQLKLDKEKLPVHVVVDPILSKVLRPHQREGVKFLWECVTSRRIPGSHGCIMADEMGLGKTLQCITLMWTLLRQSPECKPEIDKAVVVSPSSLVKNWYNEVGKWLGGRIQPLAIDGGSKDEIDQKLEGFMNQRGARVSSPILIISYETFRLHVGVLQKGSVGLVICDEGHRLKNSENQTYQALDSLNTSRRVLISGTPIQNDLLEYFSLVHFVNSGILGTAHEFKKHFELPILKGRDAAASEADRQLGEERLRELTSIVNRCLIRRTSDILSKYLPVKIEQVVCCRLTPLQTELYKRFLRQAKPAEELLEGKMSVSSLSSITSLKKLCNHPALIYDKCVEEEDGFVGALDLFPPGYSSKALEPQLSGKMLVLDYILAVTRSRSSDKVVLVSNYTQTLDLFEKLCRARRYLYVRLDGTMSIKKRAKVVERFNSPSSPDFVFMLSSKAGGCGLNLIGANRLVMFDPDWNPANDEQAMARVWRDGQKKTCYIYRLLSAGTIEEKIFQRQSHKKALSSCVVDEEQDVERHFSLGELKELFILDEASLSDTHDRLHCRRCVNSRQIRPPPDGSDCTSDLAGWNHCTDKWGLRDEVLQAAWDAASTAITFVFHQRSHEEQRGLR

cells [14] = type: functional, cell-based
cells [15] = type: functional, cell-based; remark: listed apart in the source

| SMILES | EC50 [1] | AC50 [4] | AC50 [6] | AC50 [7] | AC50 [8] | AC50 [9] | also measured |
| --- | --- | --- | --- | --- | --- | --- | --- |
| C[N+]12CN3CN(CN(C3)C1)C2 | > 50 µM (active) | – | – | – | – | – | – |
| Cc1c([N+](=O)[O-])cc(N2C(=O)C=CC2=O)cc1[N+](=O)[O-] | – | – | – | – | – | – | IC50 [2]: 6.33 µM (active); IC50 [3]: 3.77 µM (active); IC50 (Beta-galactosidase): > 66.6 µM (inactive) |
| Nc1nccnc1C(=O)OCc1nc2sc3c(c2c(=O)[nH]1)CCCC3 | – | – | – | – | – | – | EC50 (Kallikrein-7): 6.32 µM (active) |
| C[C@@H]1CN([C@H](C)CO)C(=O)c2cccc(NC(=O)CCCCCC(=O)Nc3ccccc3N)c2O[C@@H]1CN(C)S(=O)(=O)c1ccccc1 | – | 0.549 µM (active) | 0.507 µM (active) | 70.7 µM (active) | 0.573 µM (active) | 0.989 µM (active) | AC50 [5]: 3.26 µM (active) |
| CN(C)/C=N/c1ncc(C(=O)c2ccc(Cl)cc2)s1 | > 50 µM (active) | – | – | – | – | – | – |
| O=C(O)c1cc(-c2ccc(/C=N/NC(=S)Nc3ccccc3)o2)ccc1Cl | – | – | – | – | – | – | IC50 (Fatty acid synthase [10]): 15.8 µM (active); IC50 (Aminopeptidase N): 31.2 µM (active); IC50 [11]: 12.1 µM (active); IC50 (Fatty acid synthase [12]): 16.1 µM (active) |
| COc1cccc(NC(=O)N(C)C[C@@H]2Oc3cc(C#Cc4ccc(F)cc4)ccc3S(=O)(=O)N([C@@H](C)CO)C[C@@H]2C)c1 | – | 1.22 µM (active) | 1.04 µM (active) | > 100 µM (inactive) | 1.18 µM (active) | 2 µM (active) | – |
| OC[C@@H]1[C@H](c2ccc(C3=CCCC3)cc2)[C@@H](CNC2CCCC2)N1CC1CC1 | – | 0.78 µM (active) | 1.2 µM (active) | 21.1 µM (active) | 0.843 µM (active) | 1.52 µM (active) | – |
| C[C@H](CO)N1C[C@H](C)[C@@H](CN(C)Cc2cccc(C(=O)Nc3ccccc3N)c2)OCc2ccccc2-c2c(n(C)c3ccccc23)C1=O | – | 0.949 µM (active) | 0.944 µM (active) | 72.9 µM (active) | 1.12 µM (active) | 1.21 µM (active) | – |
| O=C(CN1CCCC1)Nc1ccc(-c2nc3cc(NC(=O)CN4CCCC4)ccc3o2)cc1 | > 50 µM (active) | – | – | – | – | – | AC50 [13]: 12.5 µM (active); EC50 (cells [14]): > 350 µM (not active); EC50 (cells [15]): > 350 µM (not active) |
